Test results reported in US20100254948A1, “PROCESS FOR THE PREPARATION OF GAMMA-AMINO BUTYRIC ACID (GABA) BY THE USE OF LACTIC ACID BACTERIA (LAB) ON AGRO-AND FOOD-INDUSTRY SURPLUS” (Giuliani S.p.A, priority 2007, published 2010).
“Also recorded” adds a separate entry of the source.

Experiments:
Assay type in all cases: cell-based, human
involucrin (IVL) = assay: Real time PCR of involucrin (IVL) in FT-skin model; conditions: 8, 24, 48 and 72 hours, repeated application for 3 days
Text: (§1) 2) The ‘full thickness skin model’ (FT) (Phenion GmbH & Co., Frankfurt am Main, Germany) is a multi-layer human skin model consisting of keratinocytes and fibroblasts stemming from the same donor. After a culture period of five weeks, the ‘full thickness’ was fully developed and comprised epidermis, basal membrane and derma. The model was characterized with respect to the expression of fundamental markers of differentiation at the epidermis level (cytokeratin 10, philagrin, transglutaminase and involucrin), at the derma-epidermis junctions (laminin and collagen IV) and at dermal level (elastin fibronectin). The diameter of the model FT is of 1.3 cm.
(§2) In this study the following genes were employed:
(§3) The technique employs Taqman probes for detecting the fluorescent signal and it is very sensitive, consisting in the amplification and quantification of a specific sequence of nucleic acids. The detection of the PCR product occurs in real time. The quantification of DNA, cDNA or RNA is carried out by determining the cycle in which he PCR product can be detected for the first time, thus not at the moment when the reaction has become saturated. The quantification of the product occurs through the detection of fluorescence measured in each cycle; the strength of the signal is directly proportional to the amount of the amplified product. […]
(§4) Each biological sample is evaluated in triple tests. […]

philagrin (FLG) = assay: Real time PCR of philagrin (FLG) in FT-skin model
Text: as §1, §2, §3, §4

[1] = tested on: hyaluronate synthetase (HAS1); assay: Real time PCR of hyaluronate synthetase (HAS1) in FT-skin model
Text: as §1, §2, §3, §4

[2] = tested on: GCLC (glutamate-cysteinyl ligase); assay: Real time PCR of glutamate-cysteinyl ligase (GCLC) in FT-skin model; conditions: 1% Biomass or GABA 1 mm dose, from 8 h
Text: as §1, §2, §3, §4

[3] = tested on: GSS (glutatione synthetase); assay: Real time PCR of glutatione synthetase (GSS) in FT-skin model; conditions: 24 hours, expression values very low and meaningless
Text: as §1, §2, §3, §4

NCCCC(=O)O [GABA, gamma-aminobutyric acid]
involucrin gene modulation (involucrin (IVL)): no significative modulation; also recorded: unmodulated
philagrin gene over-expression (philagrin (FLG); 24 hours): evident
philagrin gene over-expression (philagrin (FLG); 72 hours (repeated application for 3 days)): significative increase
hyaluronate synthetase (HAS) expression with respect to control sample ([1]; 24 hours, 1% Biomass or GABA 1 mm dose, high standard deviation): increased
hyaluronate synthetase (HAS) expression ([1]; 48 hours, GABA 1 mm dose): increased
GCLC gene expression (RT-PCR) [2]: No gene modulation
GSS gene modulation (RT-PCR) [3]: just as a tendency
